Data set [1] is described as follows: The pharmacokinetic test of rat. Type of data set: in vivo. Conditions: male SD rats, Gavage (3 mg/kg). How it is done: • 1.1 Test animals: male SD rats, about 220 g, 6 to 8 weeks old, 6 rats/compound. Purchased from Chengdu Senwell Experimental Animals Co., Ltd. • 1.2 Test design: On the day of the test, 6 SD rats were randomly divided into groups according to body weight. Water and no food for 12 to 14 hours one day before administration, and food 4 hours after administration.
Vehicle for intravenous administration: 5% DMA+5% Solutol+90% Saline; vehicle for gavage administration: 0.5% MC; the reference compound INS1007, which is Compound 2 in patent WO2015110826A1, was prepared according to the method of the patent.
Before and after administration, 0.1 mL of blood was taken from the orbit under isoflurane anesthesia. It was placed in an EDTAK2 centrifuge tube, and centrifuged at 5000 rpm and 4° C. for 10 min, and the plasma was collected. Time points of blood collection in the intravenous groups: 0, 5, 15, 30 min, 1, 2, 4, 6, 8, 24 h; time points of blood collection in the gavage groups: 0, 5, 15, 30 min, 1, 2, 4, 6, 8, 24 h. Before analysis and detection, all samples were stored at −80° C.

Data set [2] addresses Recombinant human DPP1 enzyme (Homo sapiens (Human), UniProt P53634). In words: Activity detection test of DPP1 enzyme in vitro.
The nature of another data set: Dynamic solubility. Type of data set: physicochemical. Conditions: thermodynamic from solid, 37° C. How it is done:
A sample of about 0.9 mL was taken, centrifuged and filtered, tested the solid by XRPD, and tested the liquid by HPLC concentration and pH.

A short description of data set [3]: HPLC impurities of solid stability samples. Type of data set: physicochemical.
Data set [4] in a line: Hygroscopicity by Dynamic Vapour Sorption (DVS). Type of data set: physicochemical. The note with it: 25° C./80% RH. How it is done: The hygroscopicity of the crystalline A of hydrochloride, crystalline A of malate and crystalline B of adipate was evaluated by a Dynamic Vapour Sorption (DVS) instrument. Crystalline form […] starts with ambient humidity (˜60% RH), and crystalline form B starts with 0% relative humidity (0% RH). The test collected mass change percentage of the sample under constant temperature conditions of 25° C., with changes in humidity (60% RH-95% RH-0% RH-95% RH or 0% RH-95% RH-0% RH). The test results are shown in FIGS. 103, 104 and 105 respectively.

A short description of data set [5]: Solid stability evaluation (XRPD and HPLC) at 25° C./60% RH and 40° C./75% RH. Type of data set: physicochemical. Conditions: for Crystalline form change: XRPD.

The source of these data is patent US20250188067A1, “SALT AND CRYSTAL FORM OF DIPEPTIDYL PEPTIDASE INHIBITOR COMPOUND” (HAISCO PHARMACEUTICALS PTE. LTD., priority 2022, published 2025).

SMILES strings stand for the structures. In brackets after ≈: the same amount, converted by molar mass. A value given as a limit tells only on which side of the number the result lay.

In general, solubility refers to the dissolved amount per volume that the medium holds.

Recombinant human DPP1 enzyme, sequence (P53634 25-134): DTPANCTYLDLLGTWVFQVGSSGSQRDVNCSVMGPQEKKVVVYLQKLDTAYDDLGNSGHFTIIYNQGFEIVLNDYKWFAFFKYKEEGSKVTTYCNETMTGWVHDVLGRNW
Recombinant human DPP1 enzyme, sequence (P53634 231-394): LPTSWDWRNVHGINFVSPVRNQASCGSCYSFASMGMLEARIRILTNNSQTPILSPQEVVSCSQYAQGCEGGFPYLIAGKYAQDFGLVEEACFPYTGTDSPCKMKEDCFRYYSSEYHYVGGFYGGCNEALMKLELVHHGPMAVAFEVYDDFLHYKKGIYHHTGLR
Recombinant human DPP1 enzyme, sequence (P53634 395-463): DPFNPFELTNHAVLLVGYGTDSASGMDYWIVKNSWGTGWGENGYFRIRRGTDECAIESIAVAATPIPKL

Regarding `Cn1c(=O)oc2ccc(-c3ccc(C[C@@H](C#N)NC(=O)[C@@H]4CNCCCO4)c(F)c3)cc21` [Compound I, (S)—N—((S)-1-cyano-2-(2-fluoro-4-(3-methyl-2-oxo-2,3-dihydrobenzo[d]oxazol-5-yl)phenyl)ethyl)-1,4-oxazepane-2-carboxamide], the F in data set [1] was above 100%. In addition, the “inhibitory activity against DPP1 (conclusion in words)” value in data set [2] is given as “high inhibitory activity”. In “Dynamic solubility” (simulated gastric fluid, SGF), this compound returned a solubility at 1 h above 5200 µg/mL, a solubility at 2 h above 5200 µg/mL, a solubility at 4 h above 5300 µg/mL and a solubility at 24 h above 5200 µg/mL. For the same compound, in the data set “Dynamic solubility” (FaSSIF), the solubility at 1 h stood at 370 µg/mL (≈ 844 µM), the concentration in solution (solubility at 2 h) came to 360 µg/mL (≈ 821 µM), the solubility at 4 h is 350 µg/mL (≈ 798 µM) and the solubility at 24 h was 290 µg/mL (≈ 661 µM). In “Dynamic solubility” (FeSSIF), this compound gave a solubility at 1 h of 2700 µg/mL (≈ 6160 µM), a solubility at 2 h of 2700 µg/mL (≈ 6160 µM), a solubility at 4 h of 2700 µg/mL (≈ 6160 µM) and a solubility at 24 h of 2300 µg/mL (≈ 5250 µM). In the data set “Dynamic solubility” (water, H2O), this compound showed a solubility at 1 h of 35 µg/mL (≈ 79.8 µM), a solubility at 2 h of 30 µg/mL (≈ 68.4 µM), a solubility at 4 h of 16 µg/mL (≈ 36.5 µM) and a solubility at 24 h of 16 µg/mL (≈ 36.5 µM).
As for `Cn1c(=O)oc2ccc(-c3ccc(C[C@@H](C#N)NC(=O)[C@@H]4CNCCCO4)cc3)cc21` [INS1007, reference compound], the F in data set [1] came to 88.1%.
With `Cl.Cn1c(=O)oc2ccc(-c3ccc(C[C@@H](C#N)NC(=O)[C@@H]4CNCCCO4)c(F)c3)cc21` [crystalline A of hydrochloride], the “HPLC peak at RRT 1.00” value in data set [3] (RRT 1.00, 25° C./60% RH/1 W) is 99.60; in data set [3] (RRT 1.00, 25° C./60% RH/3 W), 99.67; in data set [3] (RRT 1.00, 40° C./75% RH/1 W), 99.59; in data set [3] (RRT 1.00, Starting) it was 99.63. Further, the “HPLC impurity at RRT 1.06” value in data set [3] (RRT 1.06, 25° C./60% RH/1 W) was 0.26; in data set [3] (RRT 1.06, 25° C./60% RH/3 W), 0.21; in data set [3] (RRT 1.06, 40° C./75% RH/1 W), 0.20; in data set [3] (RRT 1.06, Starting), 0.21. Moreover, the “HPLC impurity at RRT 1.12” value in data set [3] (RRT 1.12, 25° C./60% RH/1 W) is listed as 0.14; in data set [3] (RRT 1.12, 25° C./60% RH/3 W) it was 0.13; in data set [3] (RRT 1.12, 40° C./75% RH/1 W), 0.12; in data set [3] (RRT 1.12, 40° C./75% RH/3 W), 0.18; in data set [3] (RRT 1.12, Starting) it was 0.16. Besides, the “HPLC impurity at RRT 1.16” value in data set [3] (RRT 1.16, 40° C./75% RH/3 W) is reported as 0.06. The “HPLC impurity at RRT 1.28” value in data set [3] (RRT 1.28, 40° C./75% RH/1 W) was found to be 0.09; in data set [3] (RRT 1.28, 40° C./75% RH/3 W), 0.17. The compound also registered a water sorption in data set [4] of 0.47%. Moreover, the “HPLC purity (Area %)” value stood at 99.60 Area % in data set [5] (25° C./60% RH, 1 week); 99.67 Area % in data set [5] (25° C./60% RH, 3 weeks); 99.59 Area % in data set [5] (40° C./75% RH, 1 week); 99.17 Area % in data set [5] (40° C./75% RH, 3 weeks); 99.63 Area % in data set [5] (Starting). Besides, the “Purity/Starting purity (%)” value in data set [5] (25° C./60% RH, 1 week) is 100.0%; in data set [5] (25° C./60% RH, 3 weeks), 100.0%; in data set [5] (40° C./75% RH, 1 week), 100.0%; in data set [5] (40° C./75% RH, 3 weeks), 99.5%. For the same compound, the Crystalline form change entry is reported as “No” in data set [5] (25° C./60% RH, 1 week) and “No” in data set [5] (40° C./75% RH, 1 week).
As to `Cn1c(=O)oc2ccc(-c3ccc(C[C@@H](C#N)NC(=O)[C@@H]4CNCCCO4)c(F)c3)cc21.O=C(O)CC(O)C(=O)O` [crystalline A of malate], the “HPLC peak at RRT 1.00” value in data set [3] (RRT 1.00, 25° C./60% RH/1 W) was 99.89; in data set [3] (RRT 1.00, 25° C./60% RH/3 W) it was 99.91; in data set [3] (RRT 1.00, 40° C./75% RH/1 W), 99.92; in data set [3] (RRT 1.00, 40° C./75% RH/3 W), 99.92; in data set [3] (RRT 1.00, Starting), 99.90. For the same compound, the “HPLC impurity at RRT 1.12” value in data set [3] (RRT 1.12, 25° C./60% RH/1 W) is recorded as 0.11; in data set [3] (RRT 1.12, 25° C./60% RH/3 W), 0.09; in data set [3] (RRT 1.12, 40° C./75% RH/1 W), 0.08; in data set [3] (RRT 1.12, 40° C./75% RH/3 W) it was 0.08; in data set [3] (RRT 1.12, Starting), 0.10. Also, the water sorption in data set [4] is listed as 1.27%. Moreover, the “HPLC purity (Area %)” value in data set [5] (25° C./60% RH, 1 week) is on record as 99.89 Area %; in data set [5] (25° C./60% RH, 3 weeks), 99.91 Area %; in data set [5] (40° C./75% RH, 1 week) it was 99.92 Area %; in data set [5] (40° C./75% RH, 3 weeks), 99.92 Area %; in data set [5] (Starting) it was 99.90 Area %. The “Purity/Starting purity (%)” value in data set [5] (25° C./60% RH, 1 week) is 100.0%; in data set [5] (25° C./60% RH, 3 weeks) it was 100.0%; in data set [5] (40° C./75% RH, 1 week), 100.0%; in data set [5] (40° C./75% RH, 3 weeks) it was 100.0%. Further, the Crystalline form change result is recorded as “No” in data set [5] (25° C./60% RH, 1 week) and “No” in data set [5] (40° C./75% RH, 1 week).
Take `Cn1c(=O)oc2ccc(-c3ccc(C[C@@H](C#N)NC(=O)[C@@H]4CNCCCO4)c(F)c3)cc21.O=C(O)CCCCC(=O)O` [crystalline B of adipate]: the “HPLC peak at RRT 1.00” value was found to be 99.71 in data set [3] (RRT 1.00, 25° C./60% RH/1 W); 99.72 in data set [3] (RRT 1.00, 25° C./60% RH/3 W); 99.74 in data set [3] (RRT 1.00, 40° C./75% RH/1 W); 99.72 in data set [3] (RRT 1.00, 40° C./75% RH/3 W); 99.74 in data set [3] (RRT 1.00, Starting). Moreover, the “HPLC impurity at RRT 1.12” value in data set [3] (RRT 1.12, 25° C./60% RH/1 W) is given as 0.29; in data set [3] (RRT 1.12, 25° C./60% RH/3 W), 0.28; in data set [3] (RRT 1.12, 40° C./75% RH/1 W) it was 0.26; in data set [3] (RRT 1.12, 40° C./75% RH/3 W) it was 0.28; in data set [3] (RRT 1.12, Starting), 0.26. Also, the water sorption in data set [4] is reported as 0.24%. For the same compound, the “HPLC purity (Area %)” value in data set [5] (25° C./60% RH, 1 week) amounted to 99.71 Area %; in data set [5] (25° C./60% RH, 3 weeks), 99.72 Area %; in data set [5] (40° C./75% RH, 1 week) it was 99.74 Area %; in data set [5] (40° C./75% RH, 3 weeks), 99.72 Area %; in data set [5] (Starting), 99.74 Area %. Further, the “Purity/Starting purity (%)” value in data set [5] (25° C./60% RH, 1 week) worked out at 100.0%; in data set [5] (25° C./60% RH, 3 weeks), 100.0%; in data set [5] (40° C./75% RH, 1 week), 100.0%; in data set [5] (40° C./75% RH, 3 weeks), 100.0%. Further, the Crystalline form change entry was “No” in data set [5] (25° C./60% RH, 1 week) and “No” in data set [5] (40° C./75% RH, 1 week).
